Article PMC11267547, “Advancing drug discovery through assay development: a survey of tool compounds within the human solute carrier superfamily” (Frontiers in Pharmacology, 2024)
pIC50: −log10 of the molar value.

Assays:
SCN2A = system: SCN2A; parameters: method as in other_targets_pubmed_ids column; conditions: cited from earlier work
SLC6A15 = system: SLC6A15; parameters: method as in ChEMBL, GtoPdb, pubmed 25318072; conditions: SLC6A15, known data from the KNIME workflow; ref ChEMBL, GtoPdb, pubmed 25318072; cited from earlier work
HRH1 = system: HRH1; parameters: method as in other_targets_pubmed_ids column; conditions: cited from earlier work
HTR2B = system: HTR2B; parameters: method as in other_targets_pubmed_ids column; conditions: cited from earlier work
NR1H4 = system: NR1H4; parameters: method as in other_targets_pubmed_ids column; conditions: cited from earlier work
PTAFR = system: PTAFR; parameters: method as in other_targets_pubmed_ids column; conditions: cited from earlier work
SLC6A4 = SLC6A4 (Homo sapiens, UniProt P31645)
Sequence of SLC6A4 (P31645 whole entry): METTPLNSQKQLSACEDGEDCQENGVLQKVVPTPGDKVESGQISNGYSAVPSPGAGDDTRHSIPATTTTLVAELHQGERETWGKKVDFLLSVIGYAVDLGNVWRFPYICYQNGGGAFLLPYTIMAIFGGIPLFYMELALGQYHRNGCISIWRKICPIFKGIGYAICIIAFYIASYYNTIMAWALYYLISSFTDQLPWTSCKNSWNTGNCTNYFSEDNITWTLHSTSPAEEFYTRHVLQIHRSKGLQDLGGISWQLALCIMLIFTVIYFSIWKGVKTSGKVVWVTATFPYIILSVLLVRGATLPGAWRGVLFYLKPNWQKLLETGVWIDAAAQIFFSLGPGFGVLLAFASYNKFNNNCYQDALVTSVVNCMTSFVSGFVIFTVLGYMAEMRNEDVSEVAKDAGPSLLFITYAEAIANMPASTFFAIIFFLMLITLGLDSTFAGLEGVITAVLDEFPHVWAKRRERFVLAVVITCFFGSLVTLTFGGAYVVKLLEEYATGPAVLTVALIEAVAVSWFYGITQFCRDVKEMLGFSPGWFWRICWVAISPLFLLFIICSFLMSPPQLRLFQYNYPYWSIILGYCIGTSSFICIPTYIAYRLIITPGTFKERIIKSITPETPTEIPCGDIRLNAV

SLC2A1 = system: SLC2A1; parameters: method as in ChEMBL, PubChem; conditions: SLC2A1, known data from the KNIME workflow; ref ChEMBL, PubChem; cited from earlier work
SLC2A2 = system: SLC2A2; parameters: method as in ChEMBL; conditions: SLC2A2, known data from the KNIME workflow; ref ChEMBL; cited from earlier work
SLC2A4 = system: SLC2A4; parameters: method as in ChEMBL, PubChem; conditions: SLC2A4, known data from the KNIME workflow; ref ChEMBL, PubChem; cited from earlier work
SIGMAR1 = system: SIGMAR1; parameters: method as in pubmed 7990111, 9057857, 12801223; conditions: ref pubmed 7990111, 9057857, 12801223; cited from earlier work
SLC22A12 (URAT1) = conditions: cited from earlier work
ABCG2 = system: ABCG2; parameters: method as in Zhao et al., 2022; conditions: ref Zhao et al., 2022; cited from earlier work
SLC6A1 = system: SLC6A1; parameters: method as in ChEMBL, GtoPdb; conditions: SLC6A1, known data from the KNIME workflow; ref ChEMBL, GtoPdb; cited from earlier work
SLC22A1 = system: SLC22A1; parameters: method as in PMID 18788725, 9655880, 28230985; conditions: ChEMBL CHEMBL994103, CHEMBL2076233, CHEMBL4009597; ref PMID 18788725, 9655880, 28230985; cited from earlier work
SLC22A2 = system: SLC22A2; parameters: method as in PMID 9260930; conditions: ChEMBL CHEMBL2076808; ref PMID 9260930; cited from earlier work
SLC22A3 = system: SLC22A3; parameters: method as in PMID 10966924; conditions: ChEMBL CHEMBL2078549; ref PMID 10966924; cited from earlier work

**Q.** Which other_targets_act (SCN2A) does the source give for `Nc1nc2ccc(OC(F)(F)F)cc2s1` [Riluzole] here?
**A.** Its other_targets_act is 5.66.

**Q.** Which results are given for `CCOC(=O)N1CCC(=C2c3ccc(Cl)cc3CCc3cccnc32)CC1` [Loratadine]?
**A.** primary_SLC_act (SLC6A15): 5.4; other_targets_act (HRH1): 6.72; other_targets_act (HTR2B): 6.71; other_targets_act (NR1H4): 5.51; other_targets_act (PTAFR): 4.3

**Q.** What does the source list for `Cc1c(NC(=O)c2cc(C(N)=O)nc3cc(F)ccc23)c(C(F)(F)F)nn1Cc1ccc(C#N)cc1` [BAY-876]?
**A.** dose–response effect on SERT activity under glucose-free conditions (SLC6A4; glucose-free conditions, HEK293–JumpIn–SLC6A4 cells): could not be reproduced; effect on SERT (SLC6A4) activity (SLC6A4; medium with glucose, in words): increase in SERT (SLC6A4) activity; primary_SLC_act (SLC2A1): 8.03; primary_SLC_act (SLC2A2): 5.03; primary_SLC_act (SLC2A4): 5.91

**Q.** Which other_targets_act (SIGMAR1) does the source give for `Fc1ccc(C(OCCN2CCN(CCCc3ccccc3)CC2)c2ccc(F)cc2)cc1` [Vanoxerine (GBR12909), Vanoxerine] here?
**A.** Its other_targets_act is 7.37.

**Q.** What does the source list for `N#Cc1ccc(Nc2cnccc2SCc2ccccc2C(=O)O)c2ccccc12` [KPH2f]?
**A.** primary_SLC_act, SLC22A12 (SLC22A12 (URAT1); ChEMBL CHEMBL5157443, ref PMID 34998055): 6.62; pIC50 (SLC22A12 (URAT1); ref Zhao et al., 2022): 6.62; pIC50 (ABCG2): 4.57

**Q.** For `Cc1ccsc1C(=CCCN1CCC[C@@H](C(=O)O)C1)c1sccc1C` [Tiagabine], which primary_SLC_act (SLC6A1) is on record?
**A.** Its primary_SLC_act is 7.18.

**Q.** For `CNCCCN1c2ccccc2CCc2ccccc21` [Desipramine], which “primary_SLC_act, SLC22A1” value (SLC22A1) is on record?
**A.** The value was 5.04.

**Q.** And the “primary_SLC_act, SLC22A2” value (SLC22A2)?
**A.** Its value is 4.8.

**Q.** What about the “primary_SLC_act, SLC22A3” value (SLC22A3) of the same compound?
**A.** The value was 4.85.
